Data taken from US20170355705A1 (GlaxoSmithKline Intellectual Property (No.2) Limited, priority 2014, published 2017).
Like-named read-outs stand apart in the source and are kept apart here.

Molecular target: T1, SIRT1 (Homo sapiens, UniProt Q96EB6)
T1 sequence (Q96EB6 1-747): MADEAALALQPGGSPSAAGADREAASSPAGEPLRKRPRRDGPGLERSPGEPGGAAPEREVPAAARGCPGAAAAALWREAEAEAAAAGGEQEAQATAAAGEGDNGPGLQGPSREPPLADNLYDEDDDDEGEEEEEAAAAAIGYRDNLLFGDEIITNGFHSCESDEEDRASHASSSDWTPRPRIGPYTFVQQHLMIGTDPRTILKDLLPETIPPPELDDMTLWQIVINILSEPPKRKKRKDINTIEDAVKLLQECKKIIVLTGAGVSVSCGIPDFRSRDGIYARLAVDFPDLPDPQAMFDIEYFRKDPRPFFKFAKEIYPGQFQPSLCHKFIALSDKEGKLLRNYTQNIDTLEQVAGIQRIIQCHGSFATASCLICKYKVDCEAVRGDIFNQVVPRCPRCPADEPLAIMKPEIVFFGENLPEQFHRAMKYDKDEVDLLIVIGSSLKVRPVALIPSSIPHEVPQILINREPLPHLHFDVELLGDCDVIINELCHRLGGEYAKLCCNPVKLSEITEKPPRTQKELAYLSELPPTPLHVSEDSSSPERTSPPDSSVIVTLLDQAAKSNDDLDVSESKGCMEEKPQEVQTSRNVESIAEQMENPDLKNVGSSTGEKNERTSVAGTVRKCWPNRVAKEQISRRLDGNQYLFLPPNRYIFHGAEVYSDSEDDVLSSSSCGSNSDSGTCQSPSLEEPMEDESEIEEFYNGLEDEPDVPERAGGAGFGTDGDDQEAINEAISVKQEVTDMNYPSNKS
Test: Trp mass spectrometry assay of SIRT1 activity (EC1.5, percent maximum activation)
Type: biochemical
Procedure, shortened: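 Steps: recombinant SIRT1 (N-His, bacterial) and NAD with p53-derived, norleucine-substituted 5TMR peptide; add compound at several concentrations; incubate 25 min; stop with 10% formic acid; freeze; quantify OAADPR by mass spec against control lacking compound.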

[1] = Trp mass spectrometry assay, 0.5 μM peptide substrate, 120 μM βNAD+, 10 nM SIRT1, 25 minutes at 25° C.
[2] = Trp mass spectrometry assay, EC1.5 = concentration giving 150% activation of SIRT1
[3] = Trp mass spectrometry assay, percent maximum activation of SIRT1

Row | TRP MAX RESP (percent maximum fold activation) [1] | TRP Activity (EC1.5) [2] | TRP MAX RESP (percent maximum fold activation) [3] | Compound | other results
1 | A (Fold activation ≧150%) |  |  | Cc1ccc(-c2ccc3c(n2)N(C(=O)Nc2cccnc2)[C@H]2CCN3C2)c(C)n1 [Example 201, (4S)-7-(2,6-dimethylpyridin-3-yl)-N-(pyridin-3-yl)-3,4-dihydro-1,4-methanopyrido[2,3-b][1,4]diazepine-5(2H)-carboxamide] | TRP Activity (EC1.5, concentration of test compound that results in 150% activation of SIRT1) [1]: B (EC1.5 1-25 μM)
2 | A (Fold activation ≧150%) |  |  | Cc1cc(-c2ccc3c(n2)N(C(=O)Nc2cc(-n4ccnn4)ccn2)[C@H]2CCN3C2)ccn1 [Example 341] | 
3 |  | B (EC1.5 1-25 μM) | A (Fold activation ≧150%) | COc1cc(-c2ccc3c(n2)N(C(=O)Nc2cnccn2)[C@H]2CCN3C2)cc(C)n1 [Example 142, (4S)-7-(2-methoxy-6-methylpyridin-4-yl)-N-(pyrazin-2-yl)-3,4-dihydro-1,4-methanopyrido[2,3-b][1,4]diazepine-5(2H)-carboxamide] | 
4 | A (Fold activation ≧150%) |  |  | Cc1cc(-c2nc3c(cc2Cl)N2CC[C@@H](C2)N3C(=O)Nc2cccnc2)ccn1 [Example 210, (9S)-4-chloro-5-(2-methylpyridin-4-yl)-N-(pyridin-3-yl)-1,6,8-triazatricyclo[7.2.1.0{2,7}]dodeca-2,4,6-triene-8-carboxamide] | TRP Activity (EC1.5, concentration of test compound that results in 150% activation of SIRT1) [1]: B (EC1.5 1-25 μM)
5 |  | B (EC1.5 1-25 μM) | A (Fold activation ≧150%) | Cn1cc(-c2nc3c(cc2Cl)N2CC[C@@H](C2)N3C(=O)Nc2ccnc(OC[C@H](O)CO)c2)cn1 [Example 106, (4S)-8-chloro-N-(2-((R)-2,3-dihydroxypropoxy)pyridin-4-yl)-7-(1-methyl-1H-pyrazol-4-yl)-3,4-dihydro-1,4-methanopyrido[2,3-b][1,4]diazepine-5(2H)-carboxamide] | 
6 |  | B (EC1.5 1-25 μM) | A (Fold activation ≧150%) | Cc1cc(-c2nc3c(cc2Cl)N2CC[C@@H](C2)N3C(=O)Nc2cccc(OC[C@H](O)CO)n2)ccn1 [Example 41, (4S)-8-chloro-N-(6-((R)-2,3-dihydroxypropoxy)pyridin-2-yl)-7-(2-methylpyridin-4-yl)-3,4-dihydro-1,4-methanopyrido[2,3-b][1,4]diazepine-5(2H)-carboxamide] | 
7 |  | B (EC1.5 1-25 μM) | A (Fold activation ≧150%) | O=C(Nc1ccnc(O[C@@H]2CCOC2)n1)N1c2nc(-c3cccc(C(F)(F)F)c3)c(Cl)cc2N2CC[C@H]1C2 [Example 18, (4S)-8-chloro-N-(2-(((R)-tetrahydrofuran-3-yl)oxy)pyrimidin-4-yl)-7-(3-(trifluoromethyl)phenyl)-3,4-dihydro-1,4-methanopyrido[2,3-b][1,4]diazepine-5(2H)-carboxamide] | 
8 |  | A (EC1.5<1 μM) | A (Fold activation ≧150%) | Cc1cc2c(nc1-c1cccc(C(F)F)c1)N(C(=O)Nc1ccnc(OC[C@@H](O)CO)c1)[C@H]1CCN2C1 [Example 89, (4S)-7-(3-(difluoromethyl)phenyl)-N-(2-((S)-2,3-dihydroxypropoxy)pyridin-4-yl)-8-methyl-3,4-dihydro-1,4-methanopyrido[2,3-b][1,4]diazepine-5(2H)-carboxamide] | 
9 | A (Fold activation ≧150%) |  |  | O=C(Nc1ncnc2cccc(F)c12)N1c2nc(-c3cccc(C(F)(F)F)c3)ccc2N2CC[C@H]1C2 [Example 361] | 
10 |  | C (EC1.5>25 μM) | B (Fold Activation <150%) | Cc1cc(-c2nc3c(cc2Cl)N2CC[C@@H](C2)N3C(=O)Nc2ccnc(OC3CCOCC3)n2)ccn1 [Example 21, (4S)-8-chloro-7-(2-methylpyridin-4-yl)-N-(2-((tetrahydro-2H-pyran-4-yl)oxy)pyrimidin-4-yl)-3,4-dihydro-1,4-methanopyrido[2,3-b][1,4]diazepine-5(2H)-carboxamide] | 
11 | A (Fold activation ≧150%) |  |  | Cc1cc(NC(=O)N2c3nc(-c4ccnc(C)c4)ccc3N3CC[C@H]2C3)ccn1 [Example 235, (4S)-N-7-bis(2-methylpyridin-4-yl)-3,4-dihydro-1,4-methanopyrido[2,3-b][1,4]diazepine-5(2H)-carboxamide] | TRP Activity (EC1.5, concentration of test compound that results in 150% activation of SIRT1) [1]: B (EC1.5 1-25 μM)
12 | A (Fold activation ≧150%) |  |  | Cc1cc(-c2ccc3c(n2)N(C(=O)Nc2cc(-c4cnc(C)s4)ccn2)[C@H]2CCN3C2)ccn1 [Example 295] | 
13 |  |  |  | Cc1ccc(-c2nc3c(cc2F)N2CC[C@@H](C2)N3C(=O)Nc2cccnc2)cn1 [Example 7, (4S)-8-fluoro-7-(6-methylpyridin-3-yl)-N-(pyridin-3-yl)-3,4-dihydro-1,4-methanopyrido[2,3-b][1,4]diazepine-5(2H)-carboxamide] | TRP Activity (EC1.5): B (key: A: EC1.5<1 μM; B: EC1.5 1-25 μM; EC1.5>25 μM); TRP MAX RESP (percent maximum fold activation): A (key: A: Fold activation ≧150%; B: Fold Activation <150%)
14 |  | B (EC1.5 1-25 μM) | A (Fold activation ≧150%) | Cc1ncc(-c2ccc3c(n2)N(C(=O)Nc2cnccn2)[C@H]2CCN3C2)o1 [Example 162, (4S)-7-(2-methyloxazol-5-yl)-N-(pyrazin-2-yl)-3,4-dihydro-1,4-methanopyrido[2,3-b][1,4]diazepine-5(2H)-carboxamide] | 
15 |  | C (EC1.5>25 μM) | B (Fold Activation <150%) | Cc1cc(-c2ccc3c(n2)N(C(=O)N2CCOCC2)[C@H]2CCN3C2)ccn1 [Example 150, ((4S)-7-(2-methylpyridin-4-yl)-3,4-dihydro-1,4-methanopyrido[2,3-b][1,4]diazepin-5(2H)-yl)(morpholino)methanone] | 
16 |  | C (EC1.5>25 μM) | B (Fold Activation <150%) | Cc1cc(-c2ccc3c(n2)N(C(=O)N2CCN(C)CC2)[C@H]2CCN3C2)ccn1 [Example 174, (4-methylpiperazin-1-yl)((4S)-7-(2-methylpyridin-4-yl)-3,4-dihydro-1,4-methanopyrido[2,3-b][1,4]diazepin-5(2H)-yl)methanone] | 
17 |  | A (EC1.5<1 μM) | A (Fold activation ≧150%) | Cc1cc(-c2ccc3c(n2)N(C(=O)Nc2cncc(C4CC4)n2)[C@H]2CCN3C2)ccn1 [Example 166, (4S)-N-(6-cyclopropylpyrazin-2-yl)-7-(2-methylpyridin-4-yl)-3,4-dihydro-1,4-methanopyrido[2,3-b][1,4]diazepine-5(2H)-carboxamide] | 
18 |  | A (EC1.5<1 μM) | A (Fold activation ≧150%) | CC(C)c1cc(-c2ccc3c(n2)N(C(=O)Nc2cnccn2)[C@H]2CCN3C2)ccn1 [Example 137, (4S)-7-(2-isopropylpyridin-4-yl)-N-(pyrazin-2-yl)-3,4-dihydro-1,4-methanopyrido[2,3-b][1,4]diazepine-5(2H)-carboxamide] | 
19 | A (Fold activation ≧150%) |  |  | C[C@@H]1COCCN1c1ccc2c(n1)N(C(=O)Nc1cccnc1)[C@H]1CCN2C1 [Example 204, (4S)-7-((R)-3-methylmorpholino)-N-(pyridin-3-yl)-3,4-dihydro-1,4-methano-pyrido[2,3-b][1,4]diazepine-5(2H)-carboxamide] | TRP Activity (EC1.5, concentration of test compound that results in 150% activation of SIRT1) [1]: B (EC1.5 1-25 μM)
20 | A (Fold activation ≧150%) |  |  | CC[C@@H]1CN(c2ccc3c(n2)N(C(=O)Nc2cnccn2)[C@H]2CCN3C2)CCO1 | 
21 |  | A (EC1.5<1 μM) | A (Fold activation ≧150%) | Cc1cc(-c2ccc3c(n2)N(C(=O)Nc2ccc4c(c2)OCO4)[C@H]2CCN3C2)ccn1 [Example 195, (4S)-N-(benzo[d][1,3]dioxol-5-yl)-7-(2-methylpyridin-4-yl)-3,4-dihydro-1,4-methanopyrido[2,3-b][1,4]diazepine-5(2H)-carboxamide] | 

Row | Compound | TRP MAX RESP (percent maximum fold activation) [1] | TRP Activity (EC1.5) [2] | TRP MAX RESP (percent maximum fold activation) [3] | other results
22 | Cc1ncc(-c2ccc3c(n2)N(C(=O)Nc2cnccn2)[C@H]2CCN3C2)s1 [Example 214, (4S)-7-(2-methylthiazol-5-yl)-N-(pyrazin-2-yl)-3,4-dihydro-1,4-methanopyrido[2,3-b][1,4]diazepine-5(2H)-carboxamide] | A (Fold activation ≧150%) |  |  | TRP Activity (EC1.5, concentration of test compound that results in 150% activation of SIRT1) [1]: B (EC1.5 1-25 μM)
